Results: patent US20200369594A1, “COMPOUNDS COMPRISING SHORT-CHAIN FATTY ACID MOIETIES AND COMPOSITIONS AND METHODS THEREOF” (priority 2018, published 2020)
“And” between values parts separate entries of the source, which are not always exact repeats. Equal entries are not always repeated.

Key:
[1] = viscosity (flow property) and taste assessment; format: physicochemical
Method: Properties of provided compounds and compositions can be readily tested, including using a number of methods widely known and practiced in the art, in accordance with the present disclosure. For example, viscosity and/or taste of provided compounds can be readily tested. In some embodiments, viscosity was assessed by testing whether a provided compound could readily flow out of a vial or be swirled. In some embodiments, viscosity was assessed by testing whether a provided compound could be administered by direct drinking by a subject. In some embodiments, viscosity can be measured quantitatively or qualitatively by methods and instruments as known and practiced in the art. In some embodiments, taste was assessed by testing whether a provided compound could be administered by direct drinking by a subject.

[2] = test system: dextran sulfate sodium (DSS)-induced colitis in mice; assay: mouse dextran sulfate sodium (DSS) model of acute ulcerative colitis; format: in vivo, mice (Swiss Webster); details: for restoration of colon length (in words): DSS-induced colitis in mice, oral administration; as to Colon Content Score (0-3): key: 0=normal, no blood observed; 1=semi-solid stool, may be slightly blood tinged; 2=semi-solid to fluid stool with definite evidence of blood; 3=bloody fluid or no content, (include animals with no observable distal content in this category)
[3] = CsA (75 mg/kg PO QD) vs. Compound I-1 (2 g/kg PO BID)
[4] = Naïve vs. Compound I-1 (2 g/kg PO BID)
[5] = Vehicle vs. Compound I-1 (2 g/kg PO BID)
[6] = individual animals, necropsy day 7, 3% DSS, Compound I-1 2 g/kg PO, BID (d0-6)

| Compound | flow properties and taste for formulation [1] | viscosity compared with glycerol [1] | Mean Diff., Tukey's multiple comparisons test (colon length, FIG. 2) [2, 3] | Significant? Tukey's multiple comparisons test (colon length, FIG. 2) [2, 3] | restoration of colon length (in words) [2] | restoration of colon length (in words) ([2]; listed as compound I-1) | Mean Diff., Tukey's multiple comparisons test (colon length, FIG. 2) [2, 4] | Significant? Tukey's multiple comparisons test (colon length, FIG. 2) [2, 4] | Mean Diff., Tukey's multiple comparisons test (colon length, FIG. 2) [2, 5] | Significant? Tukey's multiple comparisons test (colon length, FIG. 2) [2, 5] | Colon Content Score (0-3) [2, 6] | Colon Length [2, 6] | Colon Weight:Length [2, 6] | Colon Wet Wt [2, 6] |
| --- | --- | --- | --- | --- | --- | --- | --- | --- | --- | --- | --- | --- | --- | --- |
| CCCC(=O)OCC(COC(=O)CCC(=O)OCC(COC(=O)CCC)OC(=O)CCC)OC(=O)CCC (stereo not drawn) [Compound I-1] | surprisingly good flow properties and taste | lower viscosity than glycerol | 0.65 | No | significantly restore colon length | effectively restored colon length | 1.85 | Yes | −1.05 | Yes | 1 (8×) and 2 (2×) | 8.00 cm (3×) and 8.25 cm and 6.25 cm (2×) and 8.50 cm and 7.00 cm (2×) and 6.75 cm | 0.046 g/cm and 0.039 g/cm and 0.043 g/cm and 0.063 g/cm and 0.042 g/cm and 0.054 g/cm and 0.034 g/cm and 0.047 g/cm and 0.056 g/cm and 0.048 g/cm | 0.369 g and 0.320 g and 0.343 g and 0.391 g and 0.332 g (2×) and 0.339 g and 0.291 g and 0.390 g and 0.324 g |
| CCCC(=O)OCC(COC(=O)CCC)OC(=O)CCC(=O)OC(COC(=O)CCC)COC(=O)CCC [Compound I-2] | surprisingly good flow properties and taste |  |  |  |  |  |  |  |  |  |  |  |  |  |
